Measured values as given in patent US20130030012A1, “COMPOUNDS” (Glaxo Group Limited, priority 2011, published 2013).
Read-outs that look alike come from different tables or passages of the source.

Assays:
[1] = biological target: T1, recombinant human Lp-PLA2 (Homo sapiens, UniProt Q13093); assay: Recombinant human Lp-PLA2 assay (rhLp-PLA2, PED6 assay); format: biochemical; settings: upper limit for pIC50 in this assay is 9.3
T1 sequence (Q13093 22-441): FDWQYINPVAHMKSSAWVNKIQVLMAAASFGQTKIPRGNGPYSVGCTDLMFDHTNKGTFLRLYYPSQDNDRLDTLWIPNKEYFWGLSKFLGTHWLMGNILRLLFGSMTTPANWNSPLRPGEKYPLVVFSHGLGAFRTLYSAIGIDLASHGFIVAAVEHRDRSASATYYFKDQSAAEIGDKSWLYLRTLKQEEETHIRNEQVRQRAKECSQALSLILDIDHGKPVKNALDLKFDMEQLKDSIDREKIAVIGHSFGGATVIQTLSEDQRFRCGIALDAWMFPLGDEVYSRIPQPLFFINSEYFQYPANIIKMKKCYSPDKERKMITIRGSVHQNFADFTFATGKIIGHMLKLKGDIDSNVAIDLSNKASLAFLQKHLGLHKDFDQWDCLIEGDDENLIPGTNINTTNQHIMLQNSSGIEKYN
From the text: (1) Recombinant Human Lp-PLA2 Assay (rhLp-PLA2) (Also Referred to as “PED6” Assay)
N-((6-(2,4-dinitrophenyl)amino)-hexanoyl)-2-(4,4-difluoro-5,7-dimethyl-4-bora-3a,4a-diaza-s-indacene-3-pentanoyl)-1-hexadecanoyl-sn-glycero-3-phosphoethanolamine, triethylammonium salt (PED6) is a commercially available fluorescently-labeled phospholipid, which is commercially available from Invitrogene and Molecular Probes. There is a quenching […] and a Bodipy fluorescein (FL) group in the sn2 position. Upon cleavage with Lp-PLA2, the Bodipy FL group is liberated and then may result in an increase in fluorescence. Inhibitors of Lp-PLA2 therefore prevent this cleavage and no fluorescent increase is observed.
The PED6 assay was run as an unquenched 10 μL assay. The source plate containing the compounds to be tested was prepared by making 1:3 (by volume) serial dilution of the compounds within DMSO on 384-well microplate. Then, 0.01 μL of the compounds on compound source plate were transferred into 384 well Greiner 784076 (black) plates using ECHO liquid dispenser. 5 μL of recombinant human Lp-PLA2 enzyme (4 nM (or 110 pM) rhLp-PLA2 in assay buffer of 50 mM HEPES, pH 7.4, 150 mM NaCl, 1 mM CHAPS) was added to each well of the plate. Plates were centrifuged for 10 sec at 500 rpm. After 30 minutes preincubation, 5 μL of substrate ([…] (or 5 μM) PED6 [from 5 mM DMSO stock] in assay buffer of 50 mM HEPES, pH 7.4, 150 mM NaCl, 1 mM CHAPS) was added to 384 well Greiner 784076 (black) plates. Plates were centrifuged for 10 sec at 500 rpm. The plate was covered to protect it from light and incubated for 20 min at room temperature. The plates were read for fluorescence intensity at ex: 480/em: 540 using ViewLux microplate imager for Envision spectrofluoroimeters pIC50 data, curve and QC analysis was conducted by using XL fit module in Excel.
The compounds described below were tested generally according to the PED6 assay described above.

Lp-PLA2 in human plasma = biological target: T2, Lp-PLA2 in human plasma (Homo sapiens, UniProt Q13093); assay: Lp-PLA2 human plasma assay (Thio-PAF assay); format: biochemical; settings: pooled human plasma; read-out: pIC50 values in the thio-PAF assay (converted)
T2 construct: from tissue; host or cells: pooled human plasma
T2 sequence (Q13093 22-441): T1 sequence (Q13093 22-441)
From the text: The human plasma assay utilizes a thioester analog of PAF (phosphatidylcholine), where hydrolysis yields to the formation of a phospholipid containing a free thiol group. The amount of thiol is quantitated continuously by reacting with CPM (7-diethylamino-3-(4′-maleimidylphenyl)-4-methylcoumarin), a maleimide which increases in fluoresence after Michael addition of thiols. This assay may detect the activity of Lp-PLA2 in human plasma, as determined by specific inhibition by Lp-PLA2 inhibitors.
The thio-PAF assay was run as a quenched 15 μL assay. Compounds source plate was prepared by making 1:3 (by volume) serial dilution of the compounds into pure DMSO on 384-well microplate. 0.01 μL of compounds on compound source plate were transferred to 384 well Greiner 784076 (black) low-volume plates by ECHO liquid dispenser. 8 μL pooled human plasma, which was previously aliquoted and frozen, was added. Plates were centrifuged for 10 sec at 500 rpm. After 30 minutes preincubation, 2 μL of substrate solution comprising 2.5 mM 2-thio-PAF [from ethanol stock], […] CPM [from a DMSO stock] and 3.2 mM NEM (N-ethylmaleimide) [made fresh daily in DMSO] in assay buffer of 50 mM HEPES, pH 7.4, 150 mM NaCl, 1 mM CHAPS was added to 384 well Greiner 784076 (black) low-volume plates by BRAVO liquid handling station. After 2 mins, reaction was quenched with 5 μL of 5% aqueous trifluoroacetic acid (TFA). Plates were covered to protect from light and incubated for 40 min at room temperature. Plates were read at ex: 380/em: 485 using—Envision microplate reader. pIC50 data, curve and QC analysis was conducted by using XLFit module in Excel.

[2] = Table 1, read-out: rhLp-PLA2 (PED6 assay) (pIC50) (converted)
[3] = read-out: pIC50 values in the PED6 assay (converted)

CN1CCCn2c1cc(OCc1ccc(Oc3cccnc3)c(C#N)c1)nc2=O [Example 76, 5-(((1-methyl-6-oxo-2,3,4,6-tetrahydro-1H-pyrimido[1,6-a]pyrimidin-8-yl)oxy)methyl)-2-(pyridin-3-yloxy)benzonitrile]
IC50 [1, 2]: 1.26 nM | IC50 [1, 3]: ≤ 10 nM | IC50 (Lp-PLA2 in human plasma): ≤ 100 nM

CN1CCCn2c1cc(OCc1ccc(Oc3cccc(C(F)(F)F)c3)cc1)nc2=O [Example 77, 1-methyl-8-((4-(3-(trifluoromethyl)phenoxy)benzyl)oxy)-3,4-dihydro-1H-pyrimido[1,6-a]pyrimidin-6(2H)-one]
IC50 [1, 3]: ≤ 10 nM | IC50 (Lp-PLA2 in human plasma): ≤ 1000 nM

CN1CCCn2c1cc(OCc1cc(F)c(Oc3cccc(F)c3)c(F)c1)nc2=O [Example 78, 8-((3,5-difluoro-4-(3-fluorophenoxy)benzyl)oxy)-1-methyl-3,4-dihydro-1H-pyrimido[1,6-a]pyrimidin-6(2H)-one]
IC50 [1, 3]: ≤ 10 nM | IC50 (Lp-PLA2 in human plasma): ≤ 1000 nM

CN1CCCn2c1cc(OCc1cc(F)c(Oc3cc(F)cc(F)c3)c(F)c1)nc2=O [Example 79, 8-((4-(3,5-difluorophenoxy)-3,5-difluorobenzyl)oxy)-1-methyl-3,4-dihydro-1H-pyrimido[1,6-a]pyrimidin-6(2H)-one]
IC50 [1, 2]: 0.794 nM | IC50 [1, 3]: ≤ 1 nM | IC50 (Lp-PLA2 in human plasma): ≤ 100 nM

CN1CCCn2c1cc(OCc1ccc(Oc3cccc(F)c3)c(C#N)c1)nc2=O [Example 80, 2-(3-fluorophenoxy)-5-(((1-methyl-6-oxo-2,3,4,6-tetrahydro-1H-pyrimido[6-a]pyrimidin-8-yl)oxy)methyl)benzonitrile]
IC50 [1, 3]: ≤ 1 nM | IC50 (Lp-PLA2 in human plasma): ≤ 100 nM

CN1CCCn2c1cc(OCc1cc(F)c(Oc3cccc(C(F)(F)F)c3)c(F)c1)nc2=O [Example 81, 8-((3,5-difluoro-4-(3-(trifluoromethyl)phenoxy)benzyl)oxy)-1-methyl-3,4-dihydro-1H-pyrimido[1,6-a]pyrimidin-6(2H)-one]
IC50 [1, 3]: ≤ 1 nM | IC50 (Lp-PLA2 in human plasma): ≤ 100 nM

CN1CCCn2c1cc(OCc1cc(F)c(Oc3ccc(Cl)c(F)c3)c(F)c1)nc2=O [Example 82, 8-((4-(4-chloro-3-fluorophenoxy)-3,5-difluorobenzyl)oxy)-1-methyl-3,4-dihydro-1H-pyrimido[1,6-a]pyrimidin-6(2H)-one]
IC50 [1, 3]: ≤ 1 nM | IC50 (Lp-PLA2 in human plasma): ≤ 100 nM

CN1CCCn2c1cc(OCc1cc(F)c(Oc3ccc(F)c(Cl)c3)c(F)c1)nc2=O [Example 83, 8-((4-(3-chloro-4-fluorophenoxy)-3,5-difluorobenzyl)oxy)-1-methyl-3,4-dihydro-1H-pyrimido[1,6-a]pyrimidin-6(2H)-one]
IC50 [1, 2]: < 0.501 nM | IC50 [1, 3]: ≤ 1 nM | IC50 (Lp-PLA2 in human plasma): ≤ 100 nM

CN1CCCn2c1cc(OCc1ccc(Oc3ccc(F)c(Cl)c3)c(C#N)c1)nc2=O [Example 84, 2-(3-chloro-4-fluorophenoxy)-5-(((1-methyl-6-oxo-2,3,4,6-tetrahydro-1H-pyrimido[1,6-a]pyrimidin-8-yl)oxy)methyl)benzonitrile]
IC50 [1, 3]: ≤ 1 nM | IC50 (Lp-PLA2 in human plasma): ≤ 100 nM

CN1CCCn2c1cc(OCc1ccc(Oc3cccc(C#N)c3)c(F)c1)nc2=O [Example 85, 3-(2-fluoro-4-(((1-methyl-6-oxo-2,3,4,6-tetrahydro-1H-pyrimido[1,6-a]pyrimidin-8-yl)oxy)methyl)phenoxy)benzonitrile]
IC50 [1, 3]: ≤ 10 nM | IC50 (Lp-PLA2 in human plasma): ≤ 1000 nM

CN1CCCn2c1cc(OCc1cc(F)c(Oc3ccc(F)cc3)c(F)c1)nc2=O [Example 87, 8-((3,5-difluoro-4-(4-fluorophenoxy)benzyl)oxy)-1-methyl-3,4-dihydro-1H-pyrimido[1,6-a]pyrimidin-6(2H)-one]
IC50 [1, 3]: ≤ 10 nM | IC50 (Lp-PLA2 in human plasma): ≤ 1000 nM

CN1CCCn2c1cc(OCc1cc(F)c(Oc3ccc(F)c(C(F)(F)F)c3)c(F)c1)nc2=O [Example 88, 8-((3,5-difluoro-4-(4-fluoro-3-(trifluoromethyl)phenoxy)benzyl)oxy)-1-methyl-3,4-dihydro-1H-pyrimido[1,6-a]pyrimidin-6(2H)-one]
IC50 [1, 3]: ≤ 1 nM | IC50 (Lp-PLA2 in human plasma): ≤ 100 nM

CN1CCCn2c1cc(OCc1cc(F)c(Oc3ccc(C(F)(F)F)cc3)c(F)c1)nc2=O [Example 89, 8-((3,5-difluoro-4-(4-(trifluoromethyl)phenoxy)benzyl)oxy)-1-methyl-3,4-dihydro-1H-pyrimido[1,6-a]pyrimidin-6(2H)-one]
IC50 [1, 3]: ≤ 10 nM | IC50 (Lp-PLA2 in human plasma): ≤ 100 nM

CN1CCCn2c1cc(OCc1cc(F)c(Oc3cccc(Cl)c3)c(F)c1)nc2=O [Example 90, 8-((4-(3-chlorophenoxy)-3,5-difluorobenzyl)oxy)-1-methyl-3,4-dihydro-1H-pyrimido[1,6-a]pyrimidin-6(2H)-one]
IC50 [1, 3]: ≤ 1 nM | IC50 (Lp-PLA2 in human plasma): ≤ 1000 nM

O=c1nc(OCc2cc(F)c(Oc3ccc(F)c(F)c3)c(F)c2)cc2n1CCCN2 [Example 91, 8-((4-(3,4-difluorophenoxy)-3,5-difluorobenzyl)oxy)-3,4-dihydro-1H-pyrimido[1,6-a]pyrimidin-6(2H)-one]
IC50 [1, 3]: ≤ 1 nM | IC50 (Lp-PLA2 in human plasma): ≤ 100 nM

N#Cc1cc(COc2cc3n(c(=O)n2)CCCN3)ccc1Oc1ccc(C(F)(F)F)cn1 [Example 92, 5-(((6-oxo-2,3,4,6-tetrahydro-1H-pyrimido[1,6-a]pyrimidin-8-yl)oxy)methyl)-2-((5-(trifluoromethyl)pyridin-2-yl)oxy)benzonitrile]
IC50 [1, 3]: ≤ 10 nM | IC50 (Lp-PLA2 in human plasma): ≤ 100 nM

O=c1nc(OCc2cc(F)c(Oc3ccc(F)c(C(F)(F)F)c3)c(F)c2)cc2n1CCCN2 [Example 93, 8-((3,5-difluoro-4-(4-fluoro-3-(trifluoromethyl)phenoxy)benzyl)oxy)-3,4-dihydro-1H-pyrimido[1,6-a]pyrimidin-6(2H)-one]
IC50 [1, 2]: ≤ 0.501 nM | IC50 [1, 3]: ≤ 1 nM | IC50 (Lp-PLA2 in human plasma): ≤ 100 nM

N#Cc1cc(COc2cc3n(c(=O)n2)CCCN3)ccc1Oc1ccc(F)c(F)c1 [Example 94, 2-(3,4-difluorophenoxy)-5-(((6-oxo-2,3,4,6-tetrahydro-1H-pyrimido[1,6-a]pyrimidin-8-yl)oxy)methyl)benzonitrile]
IC50 [1, 3]: ≤ 1 nM | IC50 (Lp-PLA2 in human plasma): ≤ 100 nM

CN1CCCn2c1cc(OCc1ccc(Oc3ccc(Cl)nc3)c(F)c1)nc2=O [Example 95, 8-((4-((6-chloropyridin-3-yl)oxy)-3-fluorobenzyl)oxy)-1-methyl-3,4-dihydro-1H-pyrimido[1,6-a]pyrimidin-6(2H)-one]
IC50 [1, 3]: ≤ 1 nM | IC50 (Lp-PLA2 in human plasma): ≤ 100 nM

CN1CCCn2c1cc(OCc1ccc(Oc3ccc(Cl)c(F)c3)c(C#N)c1)nc2=O [Example 96, 2-(4-chloro-3-fluorophenoxy)-5-(((1-methyl-6-oxo-2,3,4,6-tetrahydro-1H-pyrimido[1,6-a]pyrimidin-8-yl)oxy)methyl)benzonitrile]
IC50 [1, 3]: ≤ 1 nM | IC50 (Lp-PLA2 in human plasma): ≤ 100 nM
